Source: patent US20250057836A1, “Compositions And Methods Targeting G12 Signaling For Bronchodilator Therapy” (Rutgers, The State University of New Jersey, priority 2017, published 2025)
Entries after “also recorded” stand apart in the source; their conditions may differ. Counter-ions that a name gives are not always drawn.

How the values were obtained:
[1] = system: AKT phosphorylation at S473 (pAKT); experiment: Immunoblot of AKT phosphorylation in HASMCs; format: cell-based, human
Experimental: Isolation and culture of HASMC. Human lungs were received from the National Disease Research Interchange (Philadelphia, PA, USA) and from the International Institute for the Advancement of Medicine (Edison, NJ, USA) and HASM cells were derived from the tracheas. […] Culture of HASM cells was conducted as described previously (Panettieri et al., 1989a). Briefly, cells were cultured in Ham's F-12 medium supplemented with 100 U mL^−1 penicillin, 0.1 mg mL^−1, streptomycin, 2.5 mg mL^−1 amphotericin B and 10% FBS. Medium was replaced every 72 hours. HASM cells were only used during subculture passages 1-4 due to the strong expression of native contractile proteins (Panettieri et al., 1989b). In pertussis toxin studies, cells were treated with 1 μg/ml of pertussis toxin for 18 hours. […]
Immunoblot analysis. […] Phosphorylation of MYPT1, MLC and AKT were assessed, and band densities were normalized to GAPDH, total MYPT1, total MLC, or total AKT band density.
Statistical analysis. […] For experiments comparing agonist responses in primary cells, conditions were all normalized to the basal condition and subsequently analyzed statistically. GraphPad Prism software (La Jolla, CA, USA) was used to determine statistical significance evaluated by Student's unpaired t-test for two groups or ANOVA with Bonferroni post-test for 3 or more groups. […]

[2] = system: human precision-cut lung slices (hPCLS); experiment: hPCLS airway dilation assay; format: cell-based
[3] = system: isoproterenol-mediated cAMP production; experiment: cAMP assay in HASMCs; format: cell-based, human; details: pertussis toxin 18 h, 1 μg/ml; 306±23 fold without PTX
Experimental: Isolation and culture of HASMC. Human lungs were received from the National Disease Research Interchange (Philadelphia, PA, USA) and from the International Institute for the Advancement of Medicine (Edison, NJ, USA) and HASM cells were derived from the tracheas. […] Culture of HASM cells was conducted as described previously (Panettieri et al., 1989a). Briefly, cells were cultured in Ham's F-12 medium supplemented with 100 U mL^−1 penicillin, 0.1 mg mL^−1, streptomycin, […] amphotericin B and 10% FBS. Medium was replaced every 72 hours. HASM cells were only used during subculture passages 1-4 due to the strong expression of native contractile proteins (Panettieri et al., 1989b). In pertussis toxin studies, cells were treated with 1 μg/ml of pertussis toxin for 18 hours. All pharmacologic inhibitors were used with DMSO as the vehicle at a final concentration of 0.1% and were used to treat HASMC 30 minutes prior to agonist stimulation.
cAMP Assay. HASMCs were seeded in a 24-well plate until about 80% confluent and serum-deprived overnight. Cells were stimulated and lysed using cAMP-Screen System ELISA from Applied Biosystems (Bedford, MA, USA). Experiment was conducted according to manufacturer's protocol.

rhosin
carbachol-induced phosphorylation of AKT (fold over basal) ([1]; primary HASMCs, rhosin 10 μM 30 minutes, carbachol 10 μM 10 min, vehicle 4.4±0.8 fold): 0.6±0.1 fold | bronchodilation of carbachol-preconstricted hPCLS ([2]; increasing doses of rhosin after carbachol, compared with formoterol): comparable to formoterol; also recorded: reverses carbachol-induced bronchoconstriction in a dose-dependent manner

COc1ccc(CC(C)NCC(O)c2ccc(O)c(NC=O)c2)cc1 (centres unmarked) [Formoterol, formoterol fumarate dihydrate]
EC50 ([2]; Homo sapiens, read-out: log EC50, reversal of carbachol-induced bronchoconstriction (converted)): 0.501 µM

pertussis toxin
effect on carbachol-induced AKT phosphorylation compared to vehicle ([1]; pertussis toxin 18 h, 1 μg/ml before carbachol 10 μM 10 min, vehicle 0.01% DMSO): little effect | isoproterenol-mediated cAMP elevation in the presence of carbachol (fold over basal) [3]: 461±37 fold
